Like-named read-outs stand apart in the source and are kept apart here.
How the values were obtained:
OX2 = target: T1, OX2 (Homo sapiens, UniProt O43614); assay: Measurement of orexin receptor-binding ability ([125I]-OX-A, cell membranes, OX2); parameters: expressed in transfected cells; host or cells: CHO cells (membrane preparation); details: membranes of recombinant CHO cells expressing OX2, 0.2 nM [125I]-OX-A
T1 sequence (O43614 1-444): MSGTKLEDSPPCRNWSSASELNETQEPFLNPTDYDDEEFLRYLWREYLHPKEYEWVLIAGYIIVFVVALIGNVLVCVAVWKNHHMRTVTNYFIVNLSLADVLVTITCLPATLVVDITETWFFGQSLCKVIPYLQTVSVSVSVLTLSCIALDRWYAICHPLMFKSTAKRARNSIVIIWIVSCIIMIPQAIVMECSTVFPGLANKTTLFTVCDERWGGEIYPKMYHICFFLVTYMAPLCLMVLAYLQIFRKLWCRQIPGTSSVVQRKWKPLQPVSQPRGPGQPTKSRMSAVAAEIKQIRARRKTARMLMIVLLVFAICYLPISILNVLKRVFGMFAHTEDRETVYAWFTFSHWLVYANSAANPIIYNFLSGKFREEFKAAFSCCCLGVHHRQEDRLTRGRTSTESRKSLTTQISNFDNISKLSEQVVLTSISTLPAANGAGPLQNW

OX1 = target: T2, OX1 (Homo sapiens, UniProt O43613); assay: Measurement of orexin receptor-binding ability ([125I]-OX-A, cell membranes, OX1); parameters: expressed in transfected cells; host or cells: CHO cells (membrane preparation)
T2 sequence (O43613 1-425): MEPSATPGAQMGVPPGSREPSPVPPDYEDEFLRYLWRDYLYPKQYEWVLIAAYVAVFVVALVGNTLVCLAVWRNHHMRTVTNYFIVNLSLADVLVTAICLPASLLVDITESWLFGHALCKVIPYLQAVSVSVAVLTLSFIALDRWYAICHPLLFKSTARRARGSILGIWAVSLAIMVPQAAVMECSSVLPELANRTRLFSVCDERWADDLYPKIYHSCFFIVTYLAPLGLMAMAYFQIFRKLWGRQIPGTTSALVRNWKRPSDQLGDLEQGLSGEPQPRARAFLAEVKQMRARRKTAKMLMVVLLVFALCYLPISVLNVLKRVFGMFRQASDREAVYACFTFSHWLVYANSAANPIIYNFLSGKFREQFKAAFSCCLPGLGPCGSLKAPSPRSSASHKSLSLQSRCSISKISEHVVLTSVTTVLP
Description: 1. Measurement of Orexin Receptor-Binding Ability
The assay was carried out using a 96-well Wheat Germ Agglutinin Flash Plate (PerkinElmer). The volume in a single assay well was 100 ul, and the composition of the reaction solution was as follows:
25 mM HEPES (pH 7.5), 1 mM CaCl2, 4.5 mM MgCl2, 0.5% BSA (bovine serum albumin), 0.1% sodium azide, 0.05% Tween-20, and 0.2% DMSO.
Cell membranes were prepared from recombinant CHO cells that expressed OX2 or OX1. The cell membranes were used in an amount of 5 μg protein/assay. […] Finally, the radioactivity of each well was measured using a scintillation counter (TopCount, PerkinElmer).

[1] = membranes of recombinant CHO cells expressing OX1, 0.2 nM [125I]-OX-A, read-out: OX1 (IC50)

SMILES	IC50 (OX2; read-out: OX2 (IC50)) [nM]	IC50 (OX1; [1]) [nM]	IC50 (OX2; OX2 (IC50) nM) [nM]	IC50 (OX1) [nM]
Cc1ncc(OC[C@@]2(c3ccccc3)C[C@H]2C(=O)Nc2ccc(F)cc2)c(C)n1 [Example 77, (1R,2S)-2-{[(2,4-dimethylpyrimidin-5-yl)oxy]methyl}-N-(4-fluorophenyl)-2-phenylcyclopropanecarboxamide]	24	41	–	–
Cc1ncc(OC[C@@]2(c3ccccc3)C[C@H]2C(=O)Nc2cccc(F)n2)c(C)n1 [Example 68]	–	–	56	140
Cc1ncc(CC[C@@]2(c3ccccc3)C[C@H]2C(=O)Nc2cc(C)c(F)cn2)c(C)n1 [Example 292, (1R,2R)-2-[2-(2,4-dimethylpyrimidin-5-yl)ethyl]-N-(5-fluoro-4-methylpyridin-2-yl)-2-phenylcyclopropanecarboxamide]	34	240	–	–
Cc1ncc(OC[C@@]2(c3cccc(F)c3)C[C@H]2c2nc3ccccc3c(=O)[nH]2)c(C)n1 [Example 310]	13	40	–	–
Cc1ncc(OC[C@@]2(c3ccc(F)c(F)c3)C[C@H]2C(=O)Nc2ccc(F)cc2)c(C)n1 [Example 165, (1R,2S)-2-(3,4-difluorophenyl)-2-{[(2,4-dimethylpyrimidin-5-yl)oxy]methyl}-N-(4-fluorophenyl)cyclopropanecarboxamide]	7	29	–	–
Cc1ncc(OCC2(c3ccccc3Cl)CC2C(=O)Nc2ccc(F)cn2)c(C)n1 (stereo not shown) [Example 151]	–	–	25	102
Cc1ncc(OC[C@@]2(c3ccc(F)cc3)C[C@H]2C(=O)Nc2cc(C)c(F)cn2)c(C)n1 [Example 111, (1R,2S)-2-{[(2,4-dimethylpyrimidin-5-yl)oxy]methyl}-N-(5-fluoro-4-methylpyridin-2-yl)-2-(4-fluorophenyl)cyclopropanecarboxamide]	6	34	–	–
Cc1ncc(OC[C@@]2(c3ccc(F)c(F)c3)C[C@H]2C(=O)Nc2ccc(C#N)cn2)c(C)n1 [Example 167, (1R,2S)-N-(5-cyanopyridin-2-yl)-2-(3,4-difluorophenyl)-2-{[(2,4-dimethylpyrimidin-5-yl)oxy]methyl}cyclopropanecarboxamide]	–	–	10	38
CCc1nc(C)ncc1OC[C@@]1(c2ccccc2)C[C@H]1C(=O)Nc1ccccn1 [Example 118, (1R,2S)-2-{[(4-ethyl-2-methylpyrimidin-5-yl)oxy]methyl}-2-phenyl-N-(pyridin-2-yl)cyclopropanecarboxamide]	24	342	–	–
COc1cc(NC(=O)[C@@H]2C[C@@]2(COc2cnc(C)nc2C)c2cc(F)cc(F)c2)ncc1F [Example 138, (1R,2S)-2-(3,5-difluorophenyl)-2-{[(2,4-dimethylpyrimidin-5-yl)oxy]methyl}-N-(5-fluoro-4-methoxypyridin-2-yl)cyclopropanecarboxamide]	2.4	2.6	–	–
Cc1ncc(OC[C@@]2(c3ccccc3)C[C@H]2C(=O)Nc2cccc(CO)c2)c(C)n1 [Example 17]	38	294	–	–
CCc1nc(C)ncc1OC[C@@]1(c2cccc(F)c2)C[C@H]1C(=O)Nc1ccc(F)cc1 [Example 316, (1R,2S)-2-{[(4-ethyl-2-methylpyrimidin-5-yl)oxy]methyl}-2-(3-fluorophenyl)-N-(4-fluorophenyl)cyclopropanecarboxamide]	1.1	7	–	–
Cc1ncc(OC[C@@]2(c3ccccc3)C[C@H]2C(=O)Nc2ccc(Cl)c(C#N)c2)c(C)n1 [Example 27]	15	169	–	–
COCc1cc(NC(=O)[C@@H]2C[C@@]2(COc2cnc(C)nc2C)c2ccccc2)ncc1F [Example 71, (1R,2S)-2-{[(2,4-dimethylpyrimidin-5-yl)oxy]methyl}-N-[5-fluoro-4-(methoxymethyl)pyridin-2-yl]-2-phenylcyclopropanecarboxamide]	5.1	52	–	–
Cc1ncc(OC[C@@]2(c3cccc(F)c3)C[C@H]2C(=O)Nc2ccc(F)cn2)c(CO)n1 [Example 286, (1R,2S)-2-(3-fluorophenyl)-N-(5-fluoropyridin-2-yl)-2-{[(4-hydroxymethyl-2-methylpyrimidin-5-yl)oxy]methyl}-2-(3-fluorophenyl)cyclopropanecarboxamide]	–	–	4.5	> 200
Cc1ncc(OC[C@@]2(c3ccccc3)C[C@H]2C(=O)Nc2ccnc(F)c2)c(C)n1 [Example 18]	33	344	–	–

SMILES	IC50 (OX2; read-out: OX2 (IC50)) [nM]	IC50 (OX1; [1]) [nM]	IC50 (OX2; OX2 (IC50) nM) [nM]	IC50 (OX1) [nM]
Cc1ncc(OC[C@@]2(c3cccc(F)c3)C[C@H]2C(=O)Nc2cc(Cl)ccn2)c(C)n1 [Example 85, (1R,2S)-N-(4-chloropyridin-2-yl)-2-{[(2,4-dimethylpyrimidin-5-yl)oxy]methyl}-2-(3-fluorophenyl)cyclopropanecarboxamide]	–	–	5	4
COc1ccnc(NC(=O)[C@@H]2C[C@@]2(COc2cnc(C)nc2C)c2ccccc2)c1 [Example 50]	–	–	13	12
Cc1ncc(N(C)C[C@@]2(c3cccc(F)c3)C[C@H]2C(=O)Nc2cc(C)c(F)cn2)c(C)n1 [Example 293]	9	79	–	–
Cc1ncc(OC[C@@]2(c3ccccc3)C[C@H]2C(=O)Nc2ccc3c(c2)N(C)C(=O)CO3)c(C)n1 [Example 22]	17	273	–	–
Cc1ncc(OCC2(c3cccc(Cl)c3)CC2C(=O)Nc2ccc(C#N)cn2)c(C)n1 (stereo not shown) [Example 156]	–	–	13	42
COCc1nc(C)ncc1OC[C@@]1(c2ccc(F)c(F)c2)C[C@H]1C(=O)Nc1ccccn1 [Example 211, (1R,2S)-2-(3,4-difluorophenyl)-2-{[(4-methoxymethyl-2-methylpyrimidin-5-yl)oxy]methyl}-N-(pyridin-2-yl)cyclopropanecarboxamide]	–	–	4	20
Cc1ncc(OC[C@@]2(c3ccccc3)C[C@H]2C(=O)Nc2cnc(F)c(C)c2)c(C)n1 [Example 57]	35	532	–	–
COc1cc(NC(=O)[C@@H]2C[C@@]2(COc2cnc(C)nc2C)c2ccc(F)c(F)c2)ncc1F [Example 173, (1R,2S)-2-(3,4-difluorophenyl)-2-{[(2,4-dimethylpyrimidin-5-yl)oxy]methyl}-N-(5-fluoro-4-methoxypyridin-2-yl)cyclopropanecarboxamide]	3.3	3.6	–	–
Cc1ncc(OCC2(c3ccccc3F)CC2C(=O)Nc2ccc(Cl)cn2)c(C)n1 (stereo not shown) [Example 262]	–	–	51	85
COc1ccccc1C1(COc2cnc(C)nc2C)CC1C(=O)Nc1ccc(F)cn1 (stereo not shown) [Example 125]	–	–	84	1050
COc1ccccc1C1(COc2cnc(C)nc2C)CC1C(=O)Nc1cccnc1 (stereo not shown) [Example 126]	107	100	–	–
COCc1nc(C)ncc1OC[C@@]1(c2cccc(F)c2)C[C@H]1C(=O)Nc1cccc(F)c1 [Example 195, (1R,2S)-N,2-bis(3-fluorophenyl)-2-{[(4-methoxymethyl-2-methylpyrimidin-5-yl)oxy]methyl}cyclopropanecarboxamide]	3	6	–	–
Cc1ncc(OC[C@@]2(c3cccs3)C[C@H]2C(=O)Nc2ccc(F)cn2)c(C)n1 [Example 268]	–	–	36	164
CCc1nc(C)ncc1OC[C@@]1(c2cccc(F)c2)C[C@H]1C(=O)Nc1ccc(C#N)cn1 [Example 242, (1R,2S)-N-(5-cyanopyridin-2-yl)-2-{[(4-ethyl-2-methylpyrimidin-5-yl)oxy]methyl}-2-(3-fluorophenyl)cyclopropanecarboxamide]	4	6	–	–
COCc1nc(C)ncc1OC[C@@]1(c2ccc(F)cc2)C[C@H]1C(=O)Nc1ccc(F)cc1 [Example 203, (1R,2S)-N,2-bis(4-fluorophenyl)-2-{[(4-methoxymethyl-2-methylpyrimidin-5-yl)oxy]methyl}cyclopropanecarboxamide]	8	215	–	–
Cc1ncc(OC[C@@]2(c3ccccc3)C[C@H]2C(=O)Nc2cc(Cl)ccn2)c(C)n1 [Example 49]	–	–	23	65

From patent US8268848B2, “Cyclopropane compound” (Eisai R&D Management Co., Ltd., priority 2010, dated 2012)
